From article PMC2895764 (Journal of molecular biology, 2010)

Experiments:
NIH 3T3 cell = experiment: Reactivation of K-ras-mediated epigenetic silencing of Fas gene; assay type: cell-based
G9a-like protein (GLP) = conditions: cited from earlier work

Structure (SMILES)	reactivation (derepression) of Ras-mediated epigenetic silencing of Fas (NIH 3T3 cell)	IC50 against GLP (G9a-like protein (GLP))
Nc1ncn([C@H]2C[C@H](O)[C@@H](CO)O2)c(=O)n1 [5-aza, 5-aza-2′-deoxycytidine]	derepressed	–
COc1cc2nc(N3CCCN(C)CC3)nc(NC3CCN(Cc4ccccc4)CC3)c2cc1OC [BIX-01294]	derepressed	low μM range
